Data set [1] concerns modified ribosomes from clones 010328R4. In words: In vitro translation: incorporation into position 49 of DHFR (pETDH49), S-30 from clone 010328R4. The data set is classed as biochemical, E. coli. The following applies: clone 010328R4 (group 1). The protocol:
(§1) In vitro Protein Translation. Protein translation reactions were carried out in 12-2000 μL of incubation mixture containing 0.4 μL/μL of S-30 system, 100 ng/μL of plasmid, 35 mM Tris acetate, pH 7.4, 190 mM potassium glutamate, 30 mM ammonium acetate, 2 mM DTT, 0.2 mg/mL total E. coli tRNA, 3.5% PEG 6000, 20 μg/mL folinic acid, 20 mM ATP and GTP, 5 mM CTP and UTP, 100 μM amino acids mixture, 0.5 μCi/μL of ^35S-methionine for analytical purposes only and 1 μg/mL rifampicin. In the case of plasmids having a gene with a TAG codon, a suppressor tRNA was added to a concentration of 0.8 μg/μL. Reactions were carried out at 37° C. for 1 h (for 12 μL reaction mixtures) to 1.5 h (for 2000 μL reaction mixtures) and terminated by chilling on ice. Aliquots from in vitro translation mixtures were analyzed by SDS-PAGE followed by quantification of the radioactive bands by phosphorimager analysis.
The other two compounds gave about 1.5-2 times lower suppression efficiency (7-9 and 5-6%).

Data set [2] can be described thus: Fluorescence emission of dipeptidomimetics and of proteins containing them. The following applies: as stated for comparison of 6 and wild-type BFP. The data set is classed as physicochemical. From the text: Further, we prepared a modified DHFR having dipeptidomimetic 6 at position 10 at larger scale to investigate the fluorescence intensity of 6 in protein. The fluorescence emission spectra of wild-type DHFR and modified DHFR having 6 at position 10 were compared (FIG. 8) at 302 nm excitation wavelength.
Fluorescence Emission of an Artificial BFP Having Dipeptidomimetic 6. We designed fluorescent dipeptidomimetics 6-10 as stable analogues of GFP-chromophore. We anticipated their use to create artificial fluorescent proteins; to verify the same we replaced the chromophore of BFP with dipeptidomimetic 6 in order to prepare an artificial fluorescent protein. The fluorescence emission of 6 is near blue region of visible light spectrum (˜400 nm). Therefore, we compared the fluorescence emission intensity of artificial FP (artificial BFP 1) having 6 at position 66 with wild-type BFP, which has a fluorescence emission ˜450 nm. […] Wild-type and artificial BFP were prepared in a larger scale in a cell free translation system for fluorescence measurements.
A modified BFP construct, having a TAG codon in position 66 and a suppressor tRNACUA activated with 6 were used for the preparation of artificial BFP 1. […] As illustrated from FIG. 11, fluorescence intensity of artificial BFP 1 (emission maximum ˜375 nm) having 6 in position 66 is 20-fold greater than the wild-type BFP at similar protein concentrations. […]

Data set [3] relates to modified ribosomes (23S rRNA modified). In words: In vitro translation: suppression of UAG codon at position 10 of DHFR mRNA, S-30 systems having modified ribosomes. The data set is classed as biochemical, E. coli. The following applies: position 10 of E. coli DHFR, relative to wild-type DHFR = 100. As for the experimental part:
Preparation of Aminoacyl-tRNACUAs. The activation of suppressor tRNACUAs was carried out as described previously.^4,5 Briefly, 100-μL reaction mixture of 100 mM Na Hepes, pH 7.5, contained 1.0 mM ATP, 15 mM MgCl2, 100 μg of suppressor tRNACUA-COH, 0.5 A260 unit of N-pentenoyl-protected aminoacyl-pdCpA, 15% DMSO, and 100 units of T4 RNA ligase. The reaction mixture was incubated at 37° C. for 1.5 h and quenched by the addition of 0.1 vol of 3 M NaOAc, pH 5.2. The N-protected aminoacylated tRNA was precipitated with 3 vol of cold ethanol. The efficiency of ligation was estimated by 8% polyarylamide-7 M urea gel electrophoresis (pH 5.0).
The N-pentenoyl-protected aminoacyl-tRNACUAs were deprotected by treatment with 5 mM aqueous […] at 25° C. for 15 min. The solution was centrifuged, and the supernatant was adjusted to 0.3 M NaOAc and treated with 3 vol of cold ethanol to precipitate the aminoacylated tRNA. The tRNA pellet was collected by centrifugation, washed with 70% aq EtOH, air dried and dissolved in 20 μL of RNase free water.
Preparation of S-30 Extracts from Cells Having Modified Ribosomes. Aliquots (5-10 μL) from liquid stocks of E. coli BL-21 (DE-3) cells, harboring plasmids with a wild-type or modified rrnB gene, were placed on LB agar supplemented with 100 µg/mL of ampicillin and grown at 37° C. for 16-18 h. One colony was picked from each agar plate and transferred into 3 mL of LB medium supplemented with 100 μg/mL of ampicillin and 0.5 mM IPTG.
as §1
Incorporation of Dipeptides 2, 3 and 4 into DHFR Using the Modified Ribosomes. Initially, glycylphenylalanine (2) was chosen to screen the selected modified ribosomes for their ability to incorporate a dipeptide into DHFR. It was anticipated that minimal steric hindrance and more flexibility at the N-terminus of the dipeptide (a glycine residue) would enable optimal positioning of the amine for a nucleophilic attack in the PTC of the modified ribosomes. A modified DHFR construct, having a TAG codon in position 10 (pETDH10 plasmid) was used for the incorporation of glycylphenylalanine.
The suppression efficiencies were expressed relative to the wild-type DHFR synthesis. As a negative control, wild-type DHFR synthesis in the presence of nonacylated-tRNACUA was measured for each experiment. The amounts of DHFR produced were quantified with a phosphoimager, which monitored the incorporation of ^35S-methionine into DHFR. Using glycylphenylalanyl-tRNACUA, S-30 preparations having the modified ribosomes from clone groups 1, 2, 3 and 9 produced full length DHFR in ˜9% yields relative to the wild-type DHFR synthesis (Table 3). The modified ribosomes from clone groups 4-8 incorporated glycylphenylalanine (2) with low yields (˜2-4%). For dipeptide 2, best incorporation yields (up to 12%) were obtained by S-30 system having modified ribosomes from clone group 9 (2057AGUGAGA2063 and 2502AUCCGA2507).

For data set [4], the system named is modified ribosomes from clone 010326R6. The data set is described as follows: In vitro translation: suppression of TAG codon at position 66 of GFP (pETGFP66), S-30 from clone 010326R6. The data set is classed as biochemical, Escherichia coli. As for the experimental part: as §1
The free amino acids both have λex in the range 296-302 nm but the λem of 7 is somewhat red-shifted compared to that of 6. […] As a negative control, wild-type GFP synthesis from the modified mRNA in the presence of nonacylated tRNACUA was measured for each experiment. The amounts of GFP produced were quantified with a phosphoimager, which monitored the incorporation of ^35S-methionine into proteins. […]

Structures are written as SMILES.

Consider `C=CCCC(=O)N[C@H]1CCCCN(CC(=O)OC2C(COP(=O)(O)OC3CC(n4ccc(N)nc4=O)OC3COP(=O)(O)O)OC(n3cnc4c(N)ncnc43)C2O)C1=O` (stereo partly drawn) [cyclic peptidomimetic 145, (S)-2-(2-Oxo-3-(pent-4-enamido)azepan-1-yl)acetyl-pdCpA], for which the “suppression efficiency (full-length DHFR synthesis relative to wild-type)” value in data set [1] was 11-13%.

`COc1ccc(-c2oc(CN)nc2C(=O)O)cc1` [dipeptidomimetic 6]: the fluorescence emission in data set [2] was about 400 nm. Moreover, the “Suppression efficiency in different S-30 systems, having modified ribosomes (%)” value was determined as 10.2 ± 1.7% in data set [3] (clone group 1) and 9.8 ± 2.1% in data set [3] (clone group 9). For the same compound, the “suppression yield (full length GFP) relative to wild-type GFP synthesis” value in data set [4] was about 6.5%.
